Results on four molecules are retold here after PMC7026418, “The kinase polypharmacology landscape of clinical PARP inhibitors” (Scientific Reports, 2020).

Like-named read-outs stand apart in the source and are kept apart here.

Common to all, as to assay: biochemical
Holding throughout (parameters): DiscoveRx KINOMEscan active site-directed competition binding; percent of control kinase bound to immobilised ligand

The target of assay [1] is T1, DMPK (Homo sapiens, UniProt Q09013).
T1 sequence (Q09013 1-629): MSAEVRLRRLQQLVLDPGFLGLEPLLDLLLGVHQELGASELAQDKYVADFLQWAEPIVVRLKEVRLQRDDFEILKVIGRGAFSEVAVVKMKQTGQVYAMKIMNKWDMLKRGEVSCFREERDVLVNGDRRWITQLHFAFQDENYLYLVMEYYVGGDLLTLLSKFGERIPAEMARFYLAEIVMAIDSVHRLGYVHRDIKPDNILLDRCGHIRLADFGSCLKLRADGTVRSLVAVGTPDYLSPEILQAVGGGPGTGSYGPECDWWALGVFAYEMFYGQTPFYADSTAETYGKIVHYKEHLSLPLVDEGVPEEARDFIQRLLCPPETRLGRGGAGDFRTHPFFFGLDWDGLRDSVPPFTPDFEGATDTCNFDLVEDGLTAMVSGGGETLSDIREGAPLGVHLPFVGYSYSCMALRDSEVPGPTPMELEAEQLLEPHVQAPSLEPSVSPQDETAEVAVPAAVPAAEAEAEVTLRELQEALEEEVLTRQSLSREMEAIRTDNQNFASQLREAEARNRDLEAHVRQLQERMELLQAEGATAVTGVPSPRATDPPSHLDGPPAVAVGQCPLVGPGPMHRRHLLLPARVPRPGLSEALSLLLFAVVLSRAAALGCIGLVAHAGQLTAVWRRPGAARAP

The target of assay [2] is T2, MEK2 (Homo sapiens, UniProt P36507).
T2 construct: gene MAP2K2
T2 sequence (P36507 whole entry): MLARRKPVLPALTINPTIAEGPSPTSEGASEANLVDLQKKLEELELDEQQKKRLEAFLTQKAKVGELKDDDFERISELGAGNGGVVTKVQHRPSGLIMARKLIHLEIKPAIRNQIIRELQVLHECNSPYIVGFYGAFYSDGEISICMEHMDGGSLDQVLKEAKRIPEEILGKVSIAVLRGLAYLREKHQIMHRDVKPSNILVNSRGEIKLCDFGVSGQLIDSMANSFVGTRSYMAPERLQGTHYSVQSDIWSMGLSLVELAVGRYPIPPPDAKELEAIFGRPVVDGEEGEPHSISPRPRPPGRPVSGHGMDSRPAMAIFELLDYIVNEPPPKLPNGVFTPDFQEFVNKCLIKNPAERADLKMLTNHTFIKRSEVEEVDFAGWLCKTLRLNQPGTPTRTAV

Assay [3] addresses KIT(V559D) (Homo sapiens, UniProt P10721, V559D).
Assay [4] has as its target T3, NEK3 (Homo sapiens, UniProt P51956).
T3 sequence (P51956 1-506): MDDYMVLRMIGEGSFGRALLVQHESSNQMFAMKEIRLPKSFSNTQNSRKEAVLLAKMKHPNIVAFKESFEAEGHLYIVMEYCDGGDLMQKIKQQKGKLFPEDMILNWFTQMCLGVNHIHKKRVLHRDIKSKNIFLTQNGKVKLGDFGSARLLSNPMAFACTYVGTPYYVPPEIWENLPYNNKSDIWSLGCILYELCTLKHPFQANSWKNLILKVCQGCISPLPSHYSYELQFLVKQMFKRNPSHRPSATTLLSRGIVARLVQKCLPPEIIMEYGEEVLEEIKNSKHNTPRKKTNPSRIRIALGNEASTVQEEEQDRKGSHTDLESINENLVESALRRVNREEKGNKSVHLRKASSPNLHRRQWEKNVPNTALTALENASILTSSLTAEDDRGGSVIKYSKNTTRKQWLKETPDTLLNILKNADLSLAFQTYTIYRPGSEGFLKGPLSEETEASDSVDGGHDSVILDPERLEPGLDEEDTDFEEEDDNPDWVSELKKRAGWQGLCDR

The target in assay [5] is TESK1 (Homo sapiens, UniProt Q15569).
TESK1, sequence (Q15569 whole entry): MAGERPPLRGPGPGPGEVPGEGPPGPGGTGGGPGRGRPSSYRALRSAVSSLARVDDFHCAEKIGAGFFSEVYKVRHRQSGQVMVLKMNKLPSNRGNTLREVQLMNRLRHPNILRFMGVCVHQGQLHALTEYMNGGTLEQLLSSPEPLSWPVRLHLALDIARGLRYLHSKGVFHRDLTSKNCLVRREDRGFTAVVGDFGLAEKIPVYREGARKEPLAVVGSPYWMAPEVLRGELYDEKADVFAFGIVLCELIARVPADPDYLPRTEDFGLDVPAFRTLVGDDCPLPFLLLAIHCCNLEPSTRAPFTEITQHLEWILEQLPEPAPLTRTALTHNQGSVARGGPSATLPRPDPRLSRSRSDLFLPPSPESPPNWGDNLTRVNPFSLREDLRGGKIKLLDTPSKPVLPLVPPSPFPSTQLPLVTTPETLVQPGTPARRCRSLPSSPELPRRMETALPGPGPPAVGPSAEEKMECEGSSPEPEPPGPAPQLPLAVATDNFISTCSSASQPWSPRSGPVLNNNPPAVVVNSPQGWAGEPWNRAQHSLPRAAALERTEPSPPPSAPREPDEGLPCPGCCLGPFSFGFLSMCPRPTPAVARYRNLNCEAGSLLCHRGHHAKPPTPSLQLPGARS
The target of assay [6] is RIPK2 (Homo sapiens, UniProt O43353).
RIPK2, sequence (O43353 whole entry): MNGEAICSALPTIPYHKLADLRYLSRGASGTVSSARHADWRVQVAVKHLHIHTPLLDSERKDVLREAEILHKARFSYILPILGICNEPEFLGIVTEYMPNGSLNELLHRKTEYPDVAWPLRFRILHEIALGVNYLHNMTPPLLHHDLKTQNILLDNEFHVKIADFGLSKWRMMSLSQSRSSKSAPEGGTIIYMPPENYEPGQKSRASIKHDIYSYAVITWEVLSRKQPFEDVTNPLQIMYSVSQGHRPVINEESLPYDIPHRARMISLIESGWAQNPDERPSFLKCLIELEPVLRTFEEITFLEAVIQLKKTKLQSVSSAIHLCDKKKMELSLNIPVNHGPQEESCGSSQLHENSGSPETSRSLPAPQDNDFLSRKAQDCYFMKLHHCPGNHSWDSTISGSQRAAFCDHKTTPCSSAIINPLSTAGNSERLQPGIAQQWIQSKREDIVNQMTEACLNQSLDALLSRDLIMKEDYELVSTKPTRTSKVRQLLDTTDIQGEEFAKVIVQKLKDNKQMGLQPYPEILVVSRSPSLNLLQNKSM
Assay [7] addresses T4, NDR2 (Homo sapiens, UniProt Q9Y2H1).
T4 construct: gene STK38L

The target in assay [8] is CSK (Homo sapiens, UniProt P41240).
CSK, sequence (P41240 whole entry): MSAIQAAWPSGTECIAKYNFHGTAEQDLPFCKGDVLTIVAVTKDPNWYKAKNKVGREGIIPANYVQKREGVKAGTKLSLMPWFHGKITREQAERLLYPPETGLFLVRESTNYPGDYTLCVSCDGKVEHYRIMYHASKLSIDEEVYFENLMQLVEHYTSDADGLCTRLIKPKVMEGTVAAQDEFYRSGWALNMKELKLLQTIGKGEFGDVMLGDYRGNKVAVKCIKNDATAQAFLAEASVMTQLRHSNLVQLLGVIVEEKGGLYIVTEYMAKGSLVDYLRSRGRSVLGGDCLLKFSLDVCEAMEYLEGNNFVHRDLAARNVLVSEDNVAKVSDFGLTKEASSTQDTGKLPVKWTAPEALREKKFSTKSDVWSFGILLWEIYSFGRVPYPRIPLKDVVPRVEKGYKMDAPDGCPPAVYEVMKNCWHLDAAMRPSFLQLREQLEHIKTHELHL
Assay [9] has as its target T5, ABL1(Y253F)-phosphorylated (Homo sapiens, UniProt P00519, Y253F).
T5 construct: phosphorylated

Assay [10] has as its target T6, MAP4K2 (Homo sapiens, UniProt Q12851).
T6 sequence (Q12851 1-820): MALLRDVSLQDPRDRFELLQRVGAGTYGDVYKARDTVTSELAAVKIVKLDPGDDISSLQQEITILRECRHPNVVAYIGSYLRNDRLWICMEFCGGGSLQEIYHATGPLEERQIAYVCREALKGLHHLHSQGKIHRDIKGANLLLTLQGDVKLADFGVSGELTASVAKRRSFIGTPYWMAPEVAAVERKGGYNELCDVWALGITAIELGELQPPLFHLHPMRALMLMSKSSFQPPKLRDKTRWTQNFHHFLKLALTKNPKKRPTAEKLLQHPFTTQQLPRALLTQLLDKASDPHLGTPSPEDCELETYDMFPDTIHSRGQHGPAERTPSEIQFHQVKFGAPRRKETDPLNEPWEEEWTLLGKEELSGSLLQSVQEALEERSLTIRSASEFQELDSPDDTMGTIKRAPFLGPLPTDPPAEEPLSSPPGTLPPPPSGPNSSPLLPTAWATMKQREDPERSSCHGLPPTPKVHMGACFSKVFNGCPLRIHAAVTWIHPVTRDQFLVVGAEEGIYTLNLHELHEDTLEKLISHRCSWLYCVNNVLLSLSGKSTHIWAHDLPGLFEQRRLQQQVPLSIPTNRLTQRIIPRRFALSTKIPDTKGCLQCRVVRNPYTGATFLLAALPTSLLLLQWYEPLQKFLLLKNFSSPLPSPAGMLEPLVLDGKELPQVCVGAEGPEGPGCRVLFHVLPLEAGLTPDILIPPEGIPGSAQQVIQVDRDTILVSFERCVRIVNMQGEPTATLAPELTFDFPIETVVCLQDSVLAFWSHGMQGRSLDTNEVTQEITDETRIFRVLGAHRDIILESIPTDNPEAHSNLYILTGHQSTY

Where [11] appears, read: read-out: Niraparib (MK-4827) / %Ctrl @ 10000nM.
The mark [12] stands for this setting: read-out: Talazoparib (BMN 673) / %Ctrl @ 10000nM.
The mark [13] stands for this setting: read-out: Rucaparib / %Ctrl @ 10000nM, binding competition, % of control.
The mark [14] stands for this setting: read-out: Olaparib / %Ctrl @ 10000nM.

T4 sequence (Q9Y2H1 whole entry): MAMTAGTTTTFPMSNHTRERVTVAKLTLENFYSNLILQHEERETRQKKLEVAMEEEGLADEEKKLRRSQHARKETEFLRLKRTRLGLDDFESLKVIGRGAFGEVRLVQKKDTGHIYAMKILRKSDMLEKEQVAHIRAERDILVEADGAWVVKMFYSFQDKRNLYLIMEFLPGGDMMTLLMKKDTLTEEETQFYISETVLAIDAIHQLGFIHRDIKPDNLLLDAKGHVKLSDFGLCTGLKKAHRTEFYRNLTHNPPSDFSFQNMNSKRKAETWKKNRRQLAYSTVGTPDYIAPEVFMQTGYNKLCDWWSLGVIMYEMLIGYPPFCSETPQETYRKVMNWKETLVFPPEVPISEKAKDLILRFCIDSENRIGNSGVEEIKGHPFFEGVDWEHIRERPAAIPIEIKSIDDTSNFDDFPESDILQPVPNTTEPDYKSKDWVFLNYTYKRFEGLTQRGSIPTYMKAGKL
KIT(V559D), sequence (P10721 whole entry V559D): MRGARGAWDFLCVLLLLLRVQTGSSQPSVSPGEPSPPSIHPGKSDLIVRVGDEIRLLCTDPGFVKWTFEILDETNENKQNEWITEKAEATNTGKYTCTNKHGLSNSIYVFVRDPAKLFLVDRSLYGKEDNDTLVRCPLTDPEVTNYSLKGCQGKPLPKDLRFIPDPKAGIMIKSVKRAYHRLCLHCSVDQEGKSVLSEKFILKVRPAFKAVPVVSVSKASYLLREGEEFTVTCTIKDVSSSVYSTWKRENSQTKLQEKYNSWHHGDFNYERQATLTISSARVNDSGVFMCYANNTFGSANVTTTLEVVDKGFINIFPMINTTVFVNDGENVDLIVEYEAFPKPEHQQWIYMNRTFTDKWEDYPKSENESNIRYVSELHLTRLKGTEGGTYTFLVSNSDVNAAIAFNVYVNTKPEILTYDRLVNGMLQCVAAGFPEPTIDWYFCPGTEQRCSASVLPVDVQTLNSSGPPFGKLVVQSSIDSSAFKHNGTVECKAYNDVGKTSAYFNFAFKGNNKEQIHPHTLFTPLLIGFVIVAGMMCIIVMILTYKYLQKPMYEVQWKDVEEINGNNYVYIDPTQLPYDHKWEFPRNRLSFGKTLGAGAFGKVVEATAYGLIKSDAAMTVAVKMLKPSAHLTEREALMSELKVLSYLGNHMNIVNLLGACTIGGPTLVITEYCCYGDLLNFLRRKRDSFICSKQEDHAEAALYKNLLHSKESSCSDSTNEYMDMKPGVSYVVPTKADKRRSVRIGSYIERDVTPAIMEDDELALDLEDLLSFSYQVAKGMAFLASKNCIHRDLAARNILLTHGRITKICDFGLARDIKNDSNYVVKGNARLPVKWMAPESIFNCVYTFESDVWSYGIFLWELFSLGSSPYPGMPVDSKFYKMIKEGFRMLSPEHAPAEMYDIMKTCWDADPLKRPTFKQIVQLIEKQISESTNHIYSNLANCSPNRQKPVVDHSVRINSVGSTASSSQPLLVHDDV

Consider `NC(=O)c1cccc2cn(-c3ccc([C@@H]4CCCNC4)cc3)nc12` [Niraparib], for which the percent of control binding at 10 µM in assay [1] (setting [11]) stood at 90%; in [2] (setting [11]), 74%; in assay [3] (setting [11]), 90%; in assay [4] (setting [11]), 88%; in [5] (setting [11]), 79%; in assay [6] (setting [11]) it was 78%. Further, the percent of control binding at 10 µM in [7] (setting [11]) was found to be 77%; in assay [8] (setting [11]), 90%; in assay [9] (setting [11]), 57%; in assay [10] (setting [11]), 83%.
Take `Cn1ncnc1[C@H]1c2n[nH]c(=O)c3cc(F)cc(c23)N[C@@H]1c1ccc(F)cc1` [Talazoparib]: the percent of control binding at 10 µM in assay [1] (setting [12]) worked out at 83%; in assay [2] (setting [12]) it was 57%; in assay [3] (setting [12]) it was 100%; in assay [4] (setting [12]), 66%; in assay [5] (setting [12]) it was 99%; in assay [6] (setting [12]), 100%. The percent of control binding at 10 µM in assay [7] (setting [12]) worked out at 83%; in assay [8] (setting [12]) it was 87%; in assay [9] (setting [12]) it was 100%; in assay [10] (setting [12]), 94%.
With `CNCc1ccc(-c2[nH]c3cc(F)cc4c3c2CCNC4=O)cc1` [Rucaparib], the percent of control binding at 10 µM in assay [1] (setting [13]) amounted to 100%; in assay [2] (setting [13]), 79%; in [3] (setting [13]) it was 92%; in [4] (setting [13]), 86%; in assay [5] (setting [13]), 98%; in assay [6] (setting [13]), 88%. Also, the percent of control binding at 10 µM in assay [7] (setting [13]) was found to be 86%; in assay [8] (setting [13]), 100%; in assay [9] (setting [13]) it was 69%; in assay [10] (setting [13]), 79%.
`O=C(c1cc(Cc2n[nH]c(=O)c3ccccc23)ccc1F)N1CCN(C(=O)C2CC2)CC1` [Olaparib]: the percent of control binding at 10 µM was 98% in assay [1] (setting [14]); 87% in assay [2] (setting [14]); 100% in assay [3] (setting [14]); 81% in [4] (setting [14]); 90% in [5] (setting [14]); 93% in assay [6] (setting [14]). The percent of control binding at 10 µM was 97% in assay [7] (setting [14]), 99% in [8] (setting [14]), 79% in [9] (setting [14]) and 97% in assay [10] (setting [14]).
